Laboratory results from patent publication US12569494B2, “Compositions and methods to promote thymic regeneration” (Fred Hutchinson Cancer Center, priority 2018, dated 2026).

Tests used:
[1] = system: ECs; assay: BMP4 expression in ECs after ATP; format: cell-based; conditions: NF-kB independent manner
[2] = system: Ex-vivo ECs (exECs); assay: Bmp4 expression by qPCR in ex-vivo thymic endothelial cells (exECs); format: cell-based, mice; conditions: 50 μM Rho GTPase inhibitor, 20 h overnight, qPCR (FIG. 7A)
Experimental: (§1) FIGS. 7A, 7B. Rho GTPase inhibition, using several small molecule inhibitors, promotes the expression of Bmp4 and the II12p40 subunit of IL-23. Ex-vivo ECs (exECs) were generated from FACS purified ECs from the thymus and transduced with lentivirus containing the adenoviral gene E4orf1, as described here Proc Natl Acad Sci USA. 2008 Dec. 9; 105(49):19288-93. The exECs were cultured in Advanced DMEM-F12 (Gibco Life Technologies 12634-028) with 20% FBS, 10 mM HEPES buffer, 1% Glutamax (Life Technologies 35050061), 1% Pen Strep, 1% Non-Essential Amino Acids (Life Technologies 11140050), 50 μg/ml Endothelial cell supplement (Alfa Aesar J64516, BT-023), 5 μM SB431542 (R&D Systems 1614), 20 ng/ml FGF (Peprotech 100-18B), 10 ng/ml VEGF (Peprotech 450-32) at 37° C., 5% O2 and 5% CO2. […] Bmp4 and II-12p40 expression were determined by qPCR (exECs, n=3-6 wells from 2 separate experiments; DCs, n=3 mice).
(§2) FIGS. 10A, 10B: In vitro treatment with a synthetic miR29c mimic reduces the expression of Bmp4 & IL-23, in ECs and DCs, respectively. exECs and DCs were generated and maintained as described in FIGS. 7A, 7B. […] Bmp4 and IL-23 expression were determined by qPCR (n=3).

[3] = system: Thymic dendritic cells (DCs); assay: Il-12p40 / IL-23 expression by qPCR in thymic dendritic cells (DCs); format: cell-based, C57BL/6 mice; conditions: 50 μM Rho GTPase inhibitor, 20 h overnight, qPCR (FIG. 7B)
Experimental: as §1, §2

[4] = system: exECs; assay: miR29 family expression by qPCR in exECs after Rac1,2,3 inhibition; format: cell-based, mice; conditions: 50 μM inhibitor, qPCR (FIG. 11)
Experimental: FIGS. 7A, 7B. Rho GTPase inhibition, using several small molecule inhibitors, promotes the expression of Bmp4 and the II12p40 subunit of IL-23. Ex-vivo ECs (exECs) were generated from FACS purified ECs from the thymus and transduced with lentivirus containing the adenoviral gene E4orf1, as described here Proc Natl Acad Sci USA. 2008 Dec. 9; 105(49):19288-93. The exECs were cultured in Advanced DMEM-F12 (Gibco Life Technologies 12634-028) with 20% FBS, 10 mM HEPES buffer, 1% Glutamax (Life Technologies 35050061), 1% Pen Strep, 1% Non-Essential Amino Acids (Life Technologies 11140050), 50 μg/ml Endothelial cell supplement (Alfa Aesar J64516, BT-023), 5 μM SB431542 (R&D Systems 1614), 20 ng/ml FGF (Peprotech 100-18B), 10 ng/ml VEGF (Peprotech 450-32) at 37° C., 5% O2 and 5% CO2. Thymic dendritic cells (DCs) were obtained from the thymus of 6 week old C57BL/6 mice, where post enzymatic digestion CD11c+ cells were isolated using magnetic beads (Miltenyi Biotech 130-108-338), and cultured in DMEM plus 10% FBS and 1% PenStrep at 37° C., 21% O2 and 5% CO2. The exECs and DCs were separately treated with 50 μM of the individual Rho GTPase inhibitors: RhoA (Millipore/Sigma, Rhosin, CAS 1173671-63-0, 555460-25MG), ROCK (TC-S 700, Tocris, 4961), Rac1,2,3 (Tocris, EHT 1864, 2161), and Cdc42 (Millipore/Sigma, CDC42 Inhibitor III, ZCL278, 500503) for 20 h overnight before being lysed and prepared for RNA extraction. Bmp4 and II-12p40 expression were determined by qPCR (exECs, n=3-6 wells from 2 separate experiments; DCs, n=3 mice).
FIG. 11. miR29c expression is reduced after Rac1 inhibition in ECs. exECs were treated with 50 μM Rac1,2,3 (Tocris, EHT 1864, 2161) inhibitor as described in FIGS. 7A, 7B. cDNA was prepared from isolated RNA using the Taqman Advanced miRNA cDNA Synthesis kit (Thermo Fisher A28007), and relative miR29c expression was assessed by qPCR (primers from Thermo Fisher A25576).

Compound | BMP4 expression [1] | Bmp4 expression [2] | iI-12p40 expression [3] | miR29c expression ([4]; compared with untreated) | miR29a levels [4] | miR29b levels [4]
Nc1ncnc2c1ncn2[C@@H]1O[C@H](COP(=O)(O)OP(=O)(O)OP(=O)(O)O)[C@@H](O)[C@H]1O [ATP] | induces | – | – | – | – | –
Cl.N[C@H](Cc1c[nH]c2ccccc12)C(=O)N/N=C/c1ccc2nccnc2c1 [Rhosin, D-Tryptophan (2E)-2-(6-quinoxalinylmethylene)hydrazide hydrochloride] | – | significantly upregulated | significantly upregulated | – | – | –
Cl.Cl.O=c1cc(CN2CCOCC2)occ1OCCCCCSc1ccnc2cc(C(F)(F)F)ccc12 (racemic) [EHT 1864, 5-(5-(7-(Trifluoromethyl)quinolin-4-ylthio)pentyloxy)-2-(morpholinomethyl)-4H-pyran-4-one dihydrochloride] | – | significantly upregulated | significantly upregulated | significantly reduced | not reduced | not reduced
